# Measured values taken from ChEMBL document CHEMBL1201862, “PubChem BioAssay data set” (2004).
#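 Where inhibition never reached the appropriate level, the endpoint shown equals the highest concentration tested. Otherwise, values were interpolated linearly from a five-concentration, 48-hour dose response in 96-well plates. Here, GI50 denotes the concentration required for 50% inhibition of growth.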 Activity calls are given as the source filed them. Cut-off read from the data, not from the text of the source: active = GI50 up to about 1.1 µM and inactive = higher.
# Columns and labels:
# Experiment in all cases: NCI-60 cell line screen, 48 h
# BT-549 = test system: BT-549
# MDA-N = test system: MDA-N
# HCC 2998 = test system: HCC 2998
# KM12 = test system: KM12
# M14 = test system: M14
# MOLT-4 = test system: MOLT-4
# MCF7 = test system: MCF7
# SK-MEL-2 = test system: SK-MEL-2
# LOX IMVI = test system: LOX IMVI
# NCI-H460 = test system: NCI-H460
# U-251 = test system: U-251
# PC-3 = test system: PC-3
# EKVX = test system: EKVX
# HT-29 = test system: HT-29
# SK-MEL-28 = test system: SK-MEL-28
# SK-MEL-5 = test system: SK-MEL-5
# NCI-H23 = test system: NCI-H23
# A549 = test system: A549
# HOP-62 = test system: HOP-62
# NCI/ADR-RES = test system: NCI/ADR-RES
# UACC-62 = test system: UACC-62
# HL-60 = test system: HL-60
# 786-0 = test system: 786-0
# Malme-3M = test system: Malme-3M
# SK-OV-3 = test system: SK-OV-3
# OVCAR-4 = test system: OVCAR-4
# SW-620 = test system: SW-620
# CCRF-CEM = test system: CCRF-CEM
# TK-10 = test system: TK-10
# RXF 393 = test system: RXF 393
# SNB-75 = test system: SNB-75
# MDA-MB-435 = test system: MDA-MB-435
# COLO 205 = test system: COLO 205
# MDA-MB-231 = test system: MDA-MB-231
# CAKI-1 = test system: CAKI-1
# RPMI-8226 = test system: RPMI-8226
# HOP-92 = test system: HOP-92
# DU-145 = test system: DU-145
# A498 = test system: A498
# SF-295 = test system: SF-295
# UACC-257 = test system: UACC-257
# OVCAR-8 = test system: OVCAR-8
# UO-31 = test system: UO-31
# IGROV-1 = test system: IGROV-1
# OVCAR-5 = test system: OVCAR-5
# SR = test system: SR
# NCI-H226 = test system: NCI-H226
# OVCAR-3 = test system: OVCAR-3
# ACHN = test system: ACHN
# SNB-19 = test system: SNB-19
# NCI-H522 = test system: NCI-H522
# Hs-578T = test system: Hs-578T
# K562 = test system: K562
# HCT-15 = test system: HCT-15
# HCT-116 = test system: HCT-116
# SF-268 = test system: SF-268
# SF-539 = test system: SF-539
# T47D = test system: T47D
# SN12C = test system: SN12C
compound,measurement,setting,value
CCN1CC2=C(OC(N)=C(C#N)C2c2ccc(Cl)cc2)/C(=C/c2ccc(Cl)cc2)C1 (stereo not given),GI50,BT-549,70.8 µM (inactive)
same,GI50,MDA-N,35 µM (inactive)
same,GI50,HCC 2998,26.7 µM (inactive)
same,GI50,KM12,33.2 µM (inactive)
same,GI50,M14,21.5 µM (inactive)
same,GI50,MOLT-4,3.19 µM (inactive)
same,GI50,MCF7,30.5 µM (inactive)
same,GI50,SK-MEL-2,27.6 µM (inactive)
same,GI50,LOX IMVI,26.8 µM (inactive)
same,GI50,NCI-H460,14 µM (inactive)
same,GI50,U-251,16.4 µM (inactive)
same,GI50,PC-3,18.2 µM (inactive)
same,GI50,EKVX,39.5 µM (inactive)
same,GI50,HT-29,38.7 µM (inactive)
same,GI50,SK-MEL-28,14.9 µM (inactive)
same,GI50,SK-MEL-5,13.1 µM (inactive)
same,GI50,NCI-H23,22.5 µM (inactive)
same,GI50,A549,14.2 µM (inactive)
same,GI50,HOP-62,18.2 µM (inactive)
same,GI50,NCI/ADR-RES,27.3 µM (inactive)
same,GI50,UACC-62,26.9 µM (inactive)
same,GI50,HL-60,> 100 µM (inactive)
same,GI50,786-0,12.1 µM (inactive)
same,GI50,Malme-3M,18.9 µM (inactive)
same,GI50,SK-OV-3,18.7 µM (inactive)
same,GI50,OVCAR-4,32.4 µM (inactive)
same,GI50,SW-620,44.1 µM (inactive)
same,GI50,CCRF-CEM,18.3 µM (inactive)
same,GI50,TK-10,21 µM (inactive)
same,GI50,RXF 393,12.3 µM (inactive)
same,GI50,SNB-75,12.5 µM (inactive)
same,GI50,MDA-MB-435,43.3 µM (inactive)
same,GI50,COLO 205,52.4 µM (inactive)
same,GI50,MDA-MB-231,16.1 µM (inactive)
same,GI50,CAKI-1,10.2 µM (inactive)
same,GI50,RPMI-8226,18 µM (inactive)
same,GI50,HOP-92,0.527 µM (active)
same,GI50,DU-145,42.4 µM (inactive)
same,GI50,A498,16.5 µM (inactive)
same,GI50,SF-295,30.1 µM (inactive)
same,GI50,UACC-257,28.1 µM (inactive)
same,GI50,OVCAR-8,16.6 µM (inactive)
same,GI50,UO-31,36.4 µM (inactive)
same,GI50,IGROV-1,20.8 µM (inactive)
same,GI50,OVCAR-5,20.1 µM (inactive)
same,GI50,SR,31.9 µM (inactive)
same,GI50,NCI-H226,31 µM (inactive)
same,GI50,OVCAR-3,21.8 µM (inactive)
same,GI50,ACHN,15.7 µM (inactive)
same,GI50,SNB-19,15 µM (inactive)
same,GI50,NCI-H522,25.1 µM (inactive)
same,GI50,Hs-578T,22.6 µM (inactive)
same,GI50,K562,8.81 µM (inactive)
same,GI50,HCT-15,45.8 µM
same,GI50,HCT-116,14.1 µM (inactive)
same,GI50,SF-268,17.8 µM (inactive)
CC(C)(C)c1cc(C(=O)Nc2cc(Br)c(Br)cc2S(N)(=O)=O)cc(C(C)(C)C)c1O,GI50,BT-549,12.2 µM (inactive)
same,GI50,HCC 2998,5.07 µM (inactive)
same,GI50,KM12,5.77 µM (inactive)
same,GI50,M14,15.2 µM (inactive)
same,GI50,MOLT-4,4.39 µM (inactive)
same,GI50,MCF7,5.37 µM (inactive)
same,GI50,SK-MEL-2,10 µM (inactive)
same,GI50,LOX IMVI,6.46 µM (inactive)
same,GI50,U-251,12.5 µM (inactive)
same,GI50,PC-3,10.7 µM (inactive)
same,GI50,EKVX,12.8 µM (inactive)
same,GI50,HT-29,5.01 µM (inactive)
same,GI50,SK-MEL-28,13.4 µM (inactive)
same,GI50,SK-MEL-5,12.4 µM (inactive)
same,GI50,NCI-H23,20 µM (inactive)
same,GI50,A549,9.12 µM (inactive)
same,GI50,HOP-62,20.9 µM (inactive)
same,GI50,UACC-62,6.08 µM (inactive)
same,GI50,786-0,11 µM (inactive)
same,GI50,Malme-3M,13.5 µM (inactive)
same,GI50,SK-OV-3,16.4 µM (inactive)
same,GI50,OVCAR-4,12.1 µM (inactive)
same,GI50,SW-620,9.42 µM (inactive)
same,GI50,CCRF-CEM,4.28 µM (inactive)
same,GI50,TK-10,12.9 µM (inactive)
same,GI50,RXF 393,11.1 µM (inactive)
same,GI50,SNB-75,9.31 µM (inactive)
same,GI50,MDA-MB-435,12.3 µM (inactive)
same,GI50,COLO 205,5.08 µM (inactive)
same,GI50,MDA-MB-231,9.51 µM (inactive)
same,GI50,CAKI-1,9.93 µM (inactive)
same,GI50,SF-539,15.8 µM (inactive)
same,GI50,RPMI-8226,8.32 µM (inactive)
same,GI50,HOP-92,6.52 µM (inactive)
same,GI50,DU-145,15.3 µM (inactive)
same,GI50,T47D,3.24 µM (inactive)
same,GI50,SF-295,14.2 µM (inactive)
same,GI50,UACC-257,17.9 µM (inactive)
same,GI50,OVCAR-8,13.3 µM (inactive)
same,GI50,UO-31,10.5 µM (inactive)
same,GI50,IGROV-1,12.6 µM (inactive)
same,GI50,OVCAR-5,12.4 µM (inactive)
same,GI50,SR,6 µM (inactive)
same,GI50,NCI-H226,13.1 µM (inactive)
same,GI50,OVCAR-3,7.91 µM (inactive)
same,GI50,ACHN,11.3 µM (inactive)
same,GI50,SNB-19,13.3 µM (inactive)
same,GI50,NCI-H522,11.8 µM (inactive)
same,GI50,Hs-578T,11.9 µM (inactive)
same,GI50,SN12C,7.24 µM (inactive)
same,GI50,K562,5.71 µM (inactive)
same,GI50,HCT-15,3.85 µM
same,GI50,HCT-116,8.24 µM (inactive)
same,GI50,SF-268,13.3 µM (inactive)
